Measured values taken from article PMC7448123, “Ru(II) Complexes Bearing O, O-Chelated Ligands Induced Apoptosis in A549 Cells through the Mitochondrial Apoptotic Pathway” (Bioinorganic Chemistry and Applications, 2020).

How the values were obtained:
[1] = system: A549 (human lung carcinoma); test: MTT cytotoxicity assay, A549; format: cell-based; conditions: 48 h; for IC50: MTT
[2] = system: HepG2 (human hepatocellular carcinoma); test: MTT cytotoxicity assay, HepG2; format: cell-based; conditions: 48 h
MCF-7 (breast cancer) = test: MTT cytotoxicity assay, MCF-7; format: cell-based, human; conditions: 48 h
[3] = system: HeLa (human cervical cancer); test: MTT cytotoxicity assay, HeLa; format: cell-based; conditions: 48 h
[4] = system: BEAS-2B (immortalized human bronchial epithelial cells); test: MTT cytotoxicity assay, normal BEAS-2B; format: cell-based; conditions: 48 h
[5] = Solution stability by UV-Vis absorption in water and CH3CN; format: physicochemical; conditions: 298 K, over 24 h, 20 μM
Method: (N-N = dip, dmp) and salicylic acid in the presence of sodium hydroxide. The crude product was purified by chromatography over alumina. The obtained compounds were analyzed by elemental analysis, ESI-MS, ^1H NMR, FTIR, and UV-Vis absorption spectroscopy, and the results were shown in Figures S1–S7 in Supplementary Materials. […] In the UV-visible spectral regions, both complexes consist of two well-resolved absorption bands. In the visible region, these two complexes present a strong MLCT transition at 500–600 nm attributed to the overlap Ru(dπ)-dip or dmp (π^∗) and Ru(dπ)-SA (π^∗). The intense band occurring between 250 nm and 300 nm is attributed to an intra-ligand (IL) π-π^∗ transition by comparing with the spectra of other Ru(II)-polypyridyl complexes.

A549 cells [6] = test: Intracellular ROS level, DCFH-DA flow cytometry; format: cell-based, human; conditions: 20 μM, 12 h
Method: The mitochondrial membrane potential (MMP) of A549 cells was analyzed by using an inverted fluorescence microscope and flow cytometry. […] For microscope observation, the collected cells were incubated in complete medium containing JC-1 (10 μg/mL) for 30 min and washed with PBS twice and then imaged by an inverted fluorescence microscope (Nikon, Japan). For flow cytometry analysis, the cells were trypsinized and washed twice with PBS and then incubated in 500 μL PBS containing JC-1 (10 μg/mL) for 30 min at 37°C. The cells were analyzed by flow cytometer immediately. The intracellular ROS level of A549 cells was detected after DCFH-DA stain, as illustrated in our new publication.
Increasing intracellular ROS levels can trigger cell apoptosis. […] To explore the roles of ROS in Ru(II) complex-induced cell apoptosis, we detected intracellular ROS levels by using an inverted fluorescence microscope and flow cytometry after staining A549 cells with DCFH-DA fluorescent dye.

A549 cells [7] = test: Hoechst 33342 nuclear staining; format: cell-based, human; conditions: 20 μΜ, 24 h
Method: (§1) First, A549 cells were incubated in six-well plates for 12 h and then exposed to Ru(II) complexes for 24 h. After incubation, cell nuclei were stained with Hoechst 33342 (5 μg/mL) for 10 min, washed twice with PBS, and then photographed using an inverted fluorescence microscope. […] The suspension was stained with 5 μL Annexin V-FITC and 10 μL PI at room temperature for 15 min and then analyzed using the flow cytometer.

A549 cells [8] = test: Annexin V-FITC/PI apoptosis flow cytometry; format: cell-based, human; conditions: 24 h
Method: as §1

[9] = Stability towards GSH and BSA by UV-Vis absorption; format: physicochemical; conditions: 12 h, 37 °C, PBS buffer (pH 7.4)
Method: Investigating the hydrolysis in the presence of biorelevant molecules is very important to assess the chemical stability and biological activities of these title complexes.
Figure S8. UV/vis absorption of Ru-1 in the absence and presence of (A) GSH or (B) BSA. All spectra were acquired 12 h after GSH or BSA addition at 37 °C in PBS buffer (pH 7.4).
Figure S9. UV/vis absorption of Ru-2 in the absence and presence of (A) GSH or (B) BSA. All spectra were acquired 12 h after GSH or BSA addition at 37 °C in PBS buffer (pH 7.4).

A549 cells [10] = test: Comet assay (single-cell gel electrophoresis), DNA damage; format: cell-based, human; conditions: 10 μM, 12 h
Method: Single-cell gel electrophoresis was performed to detect DNA damage, as previously described. Comet assay was performed according to the manufacturer's instructions. DNA was stained with SYBR Green I (Trevigen) and imaged under an inverted fluorescence microscope.
Excessive intracellular ROS can activate DNA damaged sensor proteins and lead to DNA damage, an essential hallmark of cell apoptosis. Indeed, the DNA damage effect has been observed in many previously developed Ru(II) complexes. To determine whether or not these complexes can induce DNA damage, the single-cell gel electrophoresis assay (comet assay) was conducted in our study. […] Also, the comet assay (DNA fragments appearance) could serve as a mark for apoptosis assessment. As shown in Figure 6(a), in the control group, there was no comet-like cell observed. […] Increasing the concentration to 20 μM recorded markedly higher levels of comet tails, showing that more DNA fragmentation has occurred.

A549 cells [11] = test: Cellular uptake and subcellular distribution by ICP-MS; format: cell-based, human
Method: A549 cells were seeded into six-well plates (5.0 × 10^5 cells per well) and grown overnight at 37°C in a 5% CO2 incubator. The cells were incubated with the different concentrations (5, 10, 15, and 20 μM) of Ru(II) complexes for different time intervals (1, 3, and 6 h). After the incubation, the cells were harvested and washed twice with PBS. Cell Mitochondria Isolation Kit was used to extract the nuclear, mitochondrial, and cytoplasmic fractions of the A549 cells. The pellets were digested with 3 mL concentrated nitric acid and 1 mL perhydrol for 24 h and then diluted to 5 mL with ultrapure water. Finally, ICP-MS was used to determine the amount of Ru(II) complexes uptaken by A549 cells.
It is generally acknowledged that the cellular uptake feature of transition metal-based compounds is an essential factor for their biological activities. As repeatedly reported by previous ruthenium complex-related studies, the more cellular uptake results in higher cytotoxicity. The cellular ruthenium concentration was determined by using ICP-MS after 1, 3, and 6 h of exposure to 5, 10, 15, and 20 μM Ru(II) complexes (Figure 2), respectively, and the results were reported as ng of ruthenium per 10^6 cell number.

A549 cells [12] = test: Western blotting of apoptosis, Bcl-2 family and DNA damage proteins; format: cell-based, human
Method: Glyceraldehyde-3-phosphate dehydrogenase (GAPDH) was used as an internal control. The protein concentrations were determined by BCA Protein Assay Kit.

zebrafish embryos = test: In vivo toxicity on developing zebrafish embryos

## N.N.[Cl][Pt][Cl] [Cisplatin]
[1]
  SI (selectivity index) = IC50 (BEAS-2B)/IC50 (A549): 0.8
  IC50: 27.2 ± 1.4 µM
[2]
  IC50: 30.2 ± 2 µM
MCF-7 (breast cancer)
  IC50: 16.2 ± 2 µM
[3]
  IC50: 18.3 ± 1.2 µM
[4]
  IC50: 21.4 ± 1.5 µM

## Cc1ccc2ccc3ccc(C)nc3c2n1.Cc1ccc2ccc3ccc(C)nc3c2n1.O=C1[O][Ru][O]c2ccccc21 [Ru-2, [Ru(dmp)2(SA)]]
[5]
  change in UV-Vis absorption spectra (solution stability): no significant change
A549 cells [6]
  MFI higher than the control group: ~1.9 fold
[1]
  IC50: 30.1 ± 1.2 µM
A549 cells [7]
  apoptotic features, Hoechst 33342 staining: chromatin condensation, nuclear fragmentation, and plasma membrane blebbing
A549 cells [8]; 5 μM
  early apoptotic cells (I4): 2.79%
  late apoptotic/necrotic cells (I2): 0.00%
A549 cells [8]; 10 μM
  early apoptotic cells (I4): 15.83%
A549 cells [8]; 20 μM
  early apoptotic cells (I4): 15.47%
  late apoptotic/necrotic cells (I2): 10.19%
[2]
  IC50: 26.4 ± 2.1 µM
MCF-7 (breast cancer)
  IC50: 45.7 ± 3.7 µM
[9]
  change in characteristic absorption with excessive GSH or BSA (stability): no significant change
[3]
  IC50: 32.5 ± 2.4 µM
A549 cells [10]
  DNA fragmentation, comet assay: well-formed comet tails
[4]
  IC50: 48.1 ± 3.7 µM
A549 cells [11]; 5 μM, 1 h
  Intracellular content of Ru: 85.4 ± 9.3 ng Ru/10^6 A549 cell number
A549 cells [11]; 5 μM, 3 h
  Intracellular content of Ru: 112.4±9.5 ng Ru/10^6 A549 cell number
A549 cells [11]; 5 μM, 6 h
  Intracellular content of Ru: 142.5±9.6 ng Ru/10^6 A549 cell number
A549 cells [11]; 10 μM, 1 h
  Intracellular content of Ru: 99.4±9.6 ng Ru/10^6 A549 cell number
A549 cells [11]; 10 μM, 3 h
  Intracellular content of Ru: 134.6±8.3 ng Ru/10^6 A549 cell number
A549 cells [11]; 10 μM, 6 h
  Intracellular content of Ru: 173.2±8.9 ng Ru/10^6 A549 cell number
A549 cells [11]; 15 μM, 1 h
  Intracellular content of Ru: 115.8±11.7 ng Ru/10^6 A549 cell number
A549 cells [11]; 15 μM, 3 h
  Intracellular content of Ru: 159.4±8.5 ng Ru/10^6 A549 cell number
A549 cells [11]; 15 μM, 6 h
  Intracellular content of Ru: 204.6±8.9 ng Ru/10^6 A549 cell number
A549 cells [11]; 20 μM, 1 h
  Intracellular content of Ru: 138.7±15.3 ng Ru/10^6 A549 cell number
A549 cells [11]; 20 μM, 3 h
  Intracellular content of Ru: 181.3±9.3 ng Ru/10^6 A549 cell number
A549 cells [11]; 20 μM, 6 h
  Intracellular content of Ru: 235.2 ± 16.6 ng Ru/10^6 A549 cell number

## O=C1[O][Ru][O]c2ccccc21.c1ccc(-c2ccnc3c2ccc2c(-c4ccccc4)ccnc23)cc1.c1ccc(-c2ccnc3c2ccc2c(-c4ccccc4)ccnc23)cc1 [Ru-1, [Ru(dip)2(SA)]]
A549 cells [12]
  cytochrome c expression in cytosol: apparent enhancement
  expression levels of antiapoptotic proteins Bcl-2 and Bcl-xl: downregulated
  expression of proapoptotic protein Bax and Bad: increased expression
  phosphorylation levels of Chk1 and Chk2: increased
A549 cells [12]; 24 h, concentration-dependent
  expression of cleaved-PARP, cleaved caspase-3/8/9: increased
  expression of total caspase-3/8: decreased
A549 cells [12]; concentration-dependent
  phosphorylation levels of ATM, ATR, histone, and p53: upregulation
[5]
  change in UV-Vis absorption spectra (solution stability): no significant change
A549 cells [6]
  MFI higher than the control group: about 3.0 fold
[1]
  IC50: 11.3 ± 1.1 µM
A549 cells [7]
  apoptotic features, Hoechst 33342 staining: chromatin condensation, nuclear fragmentation, and plasma membrane blebbing
Zebrafish embryos; 12.5 μM
  cumulative hatch rate and lethality rate: no difference compared with those of the control group
Zebrafish embryos; 100 μM, after 96 h
  lethality rate: lower than 35%
Zebrafish embryos; 200 μM, after 72 h treatment
  cumulative hatch: lower than 70%
Zebrafish embryos; 200 μM, at 96 h
  unhealthy features observed: pericardial cysts and spine curvature
Zebrafish embryos; 12.5 to 50 μM
  side effects: no apparent side effects
Zebrafish embryos; concentration lower than 50 μM, after 96 h
  development of embryos: all zebrafish embryos can develop into juvenile zebrafish
Zebrafish embryos; concentration lower than 100 μM, at 96 h
  malformation: no malformation was observed
A549 cells [8]; 5 μM
  early apoptotic cells (I4): 14.71%
  late apoptotic/necrotic cells (I2): 7.13%
A549 cells [8]; 10 μM
  early apoptotic cells (I4): 16.27%
A549 cells [8]; 20 μM
  early apoptotic cells (I4): 21.57%
  late apoptotic/necrotic cells (I2): 20.78%
[2]
  IC50: 15.4 ± 1 µM
MCF-7 (breast cancer)
  IC50: 29.5 ± 2.2 µM
[9]
  change in characteristic absorption with excessive GSH or BSA (stability): no significant change
[3]
  IC50: 20.1 ± 1.3 µM
A549 cells [10]
  DNA fragmentation, comet assay: well-formed comet tails
[4]
  IC50: 54.3 ± 3.4 µM
A549 cells [11]; 5 μM, 1 h
  Intracellular content of Ru: 120.3 ± 9.5 ng Ru/10^6 A549 cell number
A549 cells [11]; 5 μM, 3 h
  Intracellular content of Ru: 168.5±13.0 ng Ru/10^6 A549 cell number
A549 cells [11]; 5 μM, 6 h
  Intracellular content of Ru: 241.2±10.6 ng Ru/10^6 A549 cell number
A549 cells [11]; 10 μM, 1 h
  Intracellular content of Ru: 146.3±13.7 ng Ru/10^6 A549 cell number
A549 cells [11]; 10 μM, 3 h
  Intracellular content of Ru: 216.8±16.9 ng Ru/10^6 A549 cell number
A549 cells [11]; 10 μM, 6 h
  Intracellular content of Ru: 299.4±1.2 ng Ru/10^6 A549 cell number
A549 cells [11]; 15 μM, 1 h
  Intracellular content of Ru: 178.5±15.4 ng Ru/10^6 A549 cell number
A549 cells [11]; 15 μM, 3 h
  Intracellular content of Ru: 246.7±25.4 ng Ru/10^6 A549 cell number
A549 cells [11]; 15 μM, 6 h
  Intracellular content of Ru: 343.8±17.0 ng Ru/10^6 A549 cell number
A549 cells [11]; 20 μM, 1 h
  Intracellular content of Ru: 215.9±19.4 ng Ru/10^6 A549 cell number
A549 cells [11]; 20 μM, 3 h
  Intracellular content of Ru: 312.4±21.5 ng Ru/10^6 A549 cell number
A549 cells [11]; 20 μM, 6 h
  Intracellular content of Ru: 432.5 ± 12.4 ng Ru/10^6 A549 cell number
A549 cells [11]; 20 μM, nuclear, mitochondrial and cytoplasmic fractions
  Subcellular distribution: mostly accumulated in the cell nucleus, followed by mitochondria
